Results published in PubChem BioAssay (NCI).
Where “and” joins values, the source holds several entries; their conditions need not be identical. Equal values may be shown once.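 In this assay, cells in 96-well plates receive the compound at five concentrations for 48 hours. Endpoints are linearly interpolated between the surrounding concentrations. Abbreviation: GI50, concentration required for 50% inhibition of growth. Definition used: TGI = concentration required for complete inhibition of growth.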

Tests used:
Experiment in all cases: NCI tumour cell line growth inhibition, 48 h
786-0 renal = tested on: 786-0 renal
DMS 114 small cell lung = tested on: DMS 114 small cell lung
HCT-15 colon = tested on: HCT-15 colon
HT29 colon = tested on: HT29 colon
M19-MEL melanoma = tested on: M19-MEL melanoma
NCI-H226 lung = tested on: NCI-H226 lung
OVCAR-4 ovarian = tested on: OVCAR-4 ovarian
SN12C renal = tested on: SN12C renal
SK-MEL-2 melanoma = tested on: SK-MEL-2 melanoma
MCF7 breast = tested on: MCF7 breast

| Compound | TGI (786-0 renal) | TGI (DMS 114 small cell lung) [µM] | TGI (HCT-15 colon) | TGI (HT29 colon) | TGI (M19-MEL melanoma) [µM] | TGI (NCI-H226 lung) | TGI (OVCAR-4 ovarian) | TGI (SN12C renal) | GI50 (786-0 renal) [µM] | GI50 (DMS 114 small cell lung) [µM] | GI50 (HCT-15 colon) [µM] | GI50 (HT29 colon) [µM] | GI50 (M19-MEL melanoma) [µM] | GI50 (NCI-H226 lung) [µM] | GI50 (OVCAR-4 ovarian) [µM] | GI50 (SK-MEL-2 melanoma) [µM] | TGI (SK-MEL-2 melanoma) | GI50 (SN12C renal) [µM] | GI50 (MCF7 breast) [µM] | TGI (MCF7 breast) |
| --- | --- | --- | --- | --- | --- | --- | --- | --- | --- | --- | --- | --- | --- | --- | --- | --- | --- | --- | --- | --- |
| COC(=O)C(C(=O)C(=O)Nc1ccc([N+](=O)[O-])cc1)c1nc2cc(C)c(C)cc2[nH]c1=O (centres undefined) | > 100 µM | > 100 | > 100 µM | > 100 µM | > 100 | > 100 µM | > 100 µM | > 100 µM |  |  |  |  |  |  |  |  |  |  |  |  |
| C[CH2][Sn]([Cl])([CH2]C)[CH2]C | 3.63 µM | 4.7 | 5.79 µM | 2.62 µM | 11.4 | 5.36 µM | 11 µM | 3.47 µM | 1.01 | 0.968 | 0.637 | 0.439 | 2.06 | 2.48 | 1.41 | 0.606 | 4.48 µM | 0.841 |  |  |
| O=c1nc(-c2ccccc2)scc1-c1ccccc1 | > 100 µM | > 100 | > 100 µM | > 100 µM | > 100 | > 100 µM | > 100 µM | > 100 µM |  |  |  |  |  |  |  |  | > 100 µM |  |  |  |
| C/C=C/C=C\C(=O)C1c2cccc(O)c2C(=O)c2c(O)cc(C)cc21 (centres undefined) | 3.93 µM | 1.39 | 3.6 µM | 4.21 µM | 2.16 | 2.57 µM | 3.3 µM | 5.74 µM |  |  |  |  |  |  |  |  | 2.2 µM |  |  |  |
| O=c1[nH]c(=O)n(C2OC(CO)C(O)C2O)cc1OCc1ccccc1 (centres undefined) | > 100 µM | > 72.2 | > 77.7 µM | > 100 µM | > 100 | > 100 µM | > 100 µM | > 100 µM |  |  |  |  |  |  |  |  | > 100 µM |  |  |  |
| C[C@]12CC/C(=N\OC(=O)Nc3ccccc3)C=C1CC[C@@H]1C2CC[C@@]2(C)C1CC[C@@H]2OC(=O)Nc1ccccc1 (some centres undefined) | > 100 µM | > 100 | 14.2 µM | > 100 µM | > 100 |  | > 100 µM | 30.8 µM |  |  |  |  |  |  |  |  | > 100 µM |  |  |  |
| CCOC1=C2C(C)(CCC3[C@@]4(C)C=CC(=O)C(C)(C)C4CC(O)[C@@]23C)C(c2ccoc2)C1=O (some centres undefined) | 39.8 µM | 36.8 | 27.5 µM | 29.2 µM | 44.1 | 55.4 µM | > 100 µM | 58 µM |  |  |  |  |  |  |  |  | 43.4 µM |  |  |  |
| COc1cccc(N2C(=O)[C@H]3[C@H]4CC(C(C)(C)C)CC[C@H]4c4c([nH]c5ccccc45)[C@H]3C2=O)c1 (some centres undefined) | 30.1 µM | 38 | > 100 µM | 92.1 µM | 44.1 | 40.3 µM |  | 26.5 µM |  |  |  |  |  |  |  |  | 40.3 µM |  |  |  |
| COc1ccc2c([nH]c3cc(O)c(C)cc32)c1CC=C(C)C | 8.61 µM | > 25 | > 25 µM | > 25 µM | > 25 | > 25 µM | > 25 µM | 10.8 µM | 4.4 |  | 5.14 |  | 12.2 |  |  |  | > 25 µM |  |  |  |
| O=C(NCCCCCCNC(=O)NC1OCC(O)C(O)C1O)NC1OCC(O)C(O)C1O (centres undefined) | > 100 µM | > 100 | > 100 µM | > 100 µM | > 100 | > 100 µM | > 100 µM | > 100 µM |  |  |  |  |  |  |  |  | > 100 µM |  |  |  |
| COc1cc2c3c(c1OCc1ccccc1)NCCC3NCC2 (centres undefined) | > 100 µM | > 100 | > 100 µM | > 100 µM | > 100 | > 100 µM | > 100 µM | > 100 µM |  |  |  |  |  |  |  |  |  |  |  |  |
| CCCCCCCCCCCCCC(=O)OC1C(CO)OC(=O)C1O (centres undefined) | > 100 µM | > 100 | > 100 µM | > 100 µM | > 100 |  | > 100 µM | > 100 µM |  |  |  |  |  |  |  |  | > 100 µM |  |  |  |
| O=C1C2C3CCC(C2C(=O)N1CO)C1C2C(=O)N(CO)C(=O)C2C31 (centres undefined) | > 61.3 µM | > 59.5 | > 60.4 µM | > 100 µM | > 100 | > 100 µM | > 58.8 µM | > 69.2 µM |  |  |  |  |  |  |  |  | > 100 µM |  |  |  |
| CN1CCN(CCCN2c3ccccc3Sc3ccc(C(F)(F)F)cc32)CC1 | 3.33 µM and 16.1 µM and 21.6 µM | 23.4 | 6.57 µM and 17.3 µM and 21.3 µM | 3.06 µM and 7.61 µM and 5.88 µM | 3.75 | 6.41 µM and 32.8 µM and 32.2 µM | 12.5 µM and 21.6 µM and 26.6 µM | 12.8 µM and 22.2 µM and 26.1 µM | 1.78 |  | 2.43 | 1.53 |  | 2.16 | 3.22 | 2.34 | 4.26 µM and 15.4 µM and 15.6 µM | 2.6 | 1.77 | 3.29 µM and 18.7 µM |
| N#CC(C#N)=Cc1ccc(Oc2ccccc2)cc1 | 33 µM | 84 | > 100 µM | 56.1 µM | > 64.8 | > 72.8 µM |  | 20.6 µM |  |  |  |  |  |  |  |  | > 55.7 µM |  |  |  |
| CC(=O)OCc1c(C)c2ccccc2n1C(C)=O | > 100 µM | 47 |  | > 100 µM | > 100 | > 100 µM | > 100 µM | > 100 µM |  |  |  |  |  |  |  |  | 43.3 µM |  |  |  |
| CCOC(=O)NN(C(=O)OCC)C(C(=O)c1ccc(Cl)cc1)=C1NCCN1 | > 100 µM | > 100 |  | > 100 µM | > 100 | > 100 µM | > 100 µM | > 100 µM |  |  |  |  |  |  |  |  | > 100 µM |  |  |  |
| CC(C)N(C(=O)C12C3C4C5C3C1(C#N)C5C42)C(C)C (centres undefined) | > 100 µM | > 100 | > 100 µM | > 100 µM | > 100 | > 100 µM | > 100 µM | > 100 µM |  |  |  |  |  |  |  |  | > 100 µM |  |  |  |
| Cc1ccc(S(=O)(=O)NC(=O)C#CCOC2CCCCO2)cc1 (centres undefined) | > 100 µM | > 100 | > 100 µM | > 100 µM | > 100 | > 100 µM | > 100 µM | > 100 µM |  |  |  |  |  |  |  |  | > 100 µM |  |  |  |
